# From PubChem BioAssay (NCI)
#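 The compound was tested at five concentrations on cells cultured in 96-well plates, with a 48-hour exposure period. GI50 is the concentration that inhibits growth by half. TGI marks complete inhibition of growth.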
# Key:
# Experiment in all cases: DTP human tumour cell line panel, 48 h
# 786-0 renal = system: 786-0 renal
# A498 renal = system: A498 renal
# A549 NSCLC = system: A549 NSCLC
# ACHN renal = system: ACHN renal
# BT-549 breast = system: BT-549 breast
# CAKI-1 renal = system: CAKI-1 renal
# CCRF-CEM leukemia = system: CCRF-CEM leukemia
# COLO 205 colon = system: COLO 205 colon
# DU-145 prostate = system: DU-145 prostate
# EKVX NSCLC = system: EKVX NSCLC
# HCC-2998 colon = system: HCC-2998 colon
# HCT-116 colon = system: HCT-116 colon
# HCT-15 colon = system: HCT-15 colon
# HL-60(TB) leukemia = system: HL-60(TB) leukemia
# HOP-62 NSCLC = system: HOP-62 NSCLC
# HOP-92 NSCLC = system: HOP-92 NSCLC
# HS 578T breast = system: HS 578T breast
# HT29 colon = system: HT29 colon
# IGROV1 ovarian = system: IGROV1 ovarian
# K-562 leukemia = system: K-562 leukemia
# KM12 colon = system: KM12 colon
# LOX IMVI melanoma = system: LOX IMVI melanoma
# MALME-3M melanoma = system: MALME-3M melanoma
# MCF7 breast = system: MCF7 breast
# MDA-MB-231 breast = system: MDA-MB-231 breast
# MDA-MB-435 = system: MDA-MB-435
# MOLT-4 leukemia = system: MOLT-4 leukemia
# NCI-H226 lung = system: NCI-H226 lung
# NCI-H23 lung = system: NCI-H23 lung
# NCI-H460 lung = system: NCI-H460 lung
# NCI-H522 lung = system: NCI-H522 lung
# NCI/ADR-RES ovarian = system: NCI/ADR-RES ovarian
# OVCAR-3 ovarian = system: OVCAR-3 ovarian
# OVCAR-4 ovarian = system: OVCAR-4 ovarian
# OVCAR-5 ovarian = system: OVCAR-5 ovarian
# OVCAR-8 ovarian = system: OVCAR-8 ovarian
# PC-3 prostate = system: PC-3 prostate
# RPMI-8226 leukemia = system: RPMI-8226 leukemia
# RXF 393 renal = system: RXF 393 renal
# SF-268 CNS = system: SF-268 CNS
# SF-295 CNS = system: SF-295 CNS
# SF-539 CNS = system: SF-539 CNS
# SK-MEL-2 melanoma = system: SK-MEL-2 melanoma
# SK-MEL-28 melanoma = system: SK-MEL-28 melanoma
# SK-MEL-5 melanoma = system: SK-MEL-5 melanoma
# SK-OV-3 ovarian = system: SK-OV-3 ovarian
# SN12C renal = system: SN12C renal
# SNB-19 CNS = system: SNB-19 CNS
# SNB-75 CNS = system: SNB-75 CNS
# SW-620 colon = system: SW-620 colon
# T-47D breast = system: T-47D breast
# TK-10 renal = system: TK-10 renal
# U251 CNS = system: U251 CNS
# UACC-257 melanoma = system: UACC-257 melanoma
# UACC-62 melanoma = system: UACC-62 melanoma
# UO-31 renal = system: UO-31 renal
smiles,measurement,setting,value
Cc1nc2c(cnn2-c2ccnc3c(C(F)(F)F)cccc23)c(=O)o1,GI50,786-0 renal,> 100 µM
same,TGI,786-0 renal,> 100 µM
same,GI50,A498 renal,> 100 µM
same,TGI,A498 renal,> 100 µM
same,GI50,A549 NSCLC,> 100 µM
same,TGI,A549 NSCLC,> 100 µM
same,GI50,ACHN renal,> 100 µM
same,TGI,ACHN renal,> 100 µM
same,GI50,BT-549 breast,> 100 µM
same,TGI,BT-549 breast,> 100 µM
same,GI50,CAKI-1 renal,> 100 µM
same,TGI,CAKI-1 renal,> 100 µM
same,GI50,CCRF-CEM leukemia,> 100 µM
same,TGI,CCRF-CEM leukemia,> 100 µM
same,GI50,COLO 205 colon,> 100 µM
same,TGI,COLO 205 colon,> 100 µM
same,GI50,DU-145 prostate,> 100 µM
same,TGI,DU-145 prostate,> 100 µM
same,GI50,EKVX NSCLC,> 100 µM
same,TGI,EKVX NSCLC,> 100 µM
same,GI50,HCC-2998 colon,> 100 µM
same,TGI,HCC-2998 colon,> 100 µM
same,GI50,HCT-116 colon,> 100 µM
same,TGI,HCT-116 colon,> 100 µM
same,GI50,HCT-15 colon,> 100 µM
same,TGI,HCT-15 colon,> 100 µM
same,GI50,HL-60(TB) leukemia,> 100 µM
same,TGI,HL-60(TB) leukemia,> 100 µM
same,GI50,HOP-62 NSCLC,> 100 µM
same,TGI,HOP-62 NSCLC,> 100 µM
same,GI50,HOP-92 NSCLC,> 100 µM
same,TGI,HOP-92 NSCLC,> 100 µM
same,GI50,HS 578T breast,> 100 µM
same,TGI,HS 578T breast,> 100 µM
same,GI50,HT29 colon,> 100 µM
same,TGI,HT29 colon,> 100 µM
same,GI50,IGROV1 ovarian,> 100 µM
same,TGI,IGROV1 ovarian,> 100 µM
same,GI50,K-562 leukemia,> 100 µM
same,TGI,K-562 leukemia,> 100 µM
same,GI50,KM12 colon,> 100 µM
same,TGI,KM12 colon,> 100 µM
same,GI50,LOX IMVI melanoma,> 100 µM
same,TGI,LOX IMVI melanoma,> 100 µM
same,GI50,MALME-3M melanoma,> 100 µM
same,TGI,MALME-3M melanoma,> 100 µM
same,GI50,MCF7 breast,> 100 µM
same,TGI,MCF7 breast,> 100 µM
same,GI50,MDA-MB-231 breast,> 100 µM
same,TGI,MDA-MB-231 breast,> 100 µM
same,GI50,MDA-MB-435,> 100 µM
same,TGI,MDA-MB-435,> 100 µM
same,GI50,MOLT-4 leukemia,> 100 µM
same,TGI,MOLT-4 leukemia,> 100 µM
same,GI50,NCI-H226 lung,> 100 µM
same,TGI,NCI-H226 lung,> 100 µM
same,GI50,NCI-H23 lung,> 100 µM
same,TGI,NCI-H23 lung,> 100 µM
same,GI50,NCI-H460 lung,> 100 µM
same,TGI,NCI-H460 lung,> 100 µM
same,GI50,NCI-H522 lung,> 100 µM
same,TGI,NCI-H522 lung,> 100 µM
same,GI50,NCI/ADR-RES ovarian,> 100 µM
same,TGI,NCI/ADR-RES ovarian,> 100 µM
same,GI50,OVCAR-3 ovarian,> 100 µM
same,TGI,OVCAR-3 ovarian,> 100 µM
same,GI50,OVCAR-4 ovarian,> 100 µM
same,TGI,OVCAR-4 ovarian,> 100 µM
same,GI50,OVCAR-5 ovarian,> 100 µM
same,TGI,OVCAR-5 ovarian,> 100 µM
same,GI50,OVCAR-8 ovarian,> 100 µM
same,TGI,OVCAR-8 ovarian,> 100 µM
same,GI50,PC-3 prostate,> 100 µM
same,TGI,PC-3 prostate,> 100 µM
same,GI50,RPMI-8226 leukemia,> 100 µM
same,TGI,RPMI-8226 leukemia,> 100 µM
same,GI50,RXF 393 renal,> 100 µM
same,TGI,RXF 393 renal,> 100 µM
same,GI50,SF-268 CNS,> 100 µM
same,TGI,SF-268 CNS,> 100 µM
same,GI50,SF-295 CNS,> 100 µM
same,TGI,SF-295 CNS,> 100 µM
same,GI50,SF-539 CNS,> 100 µM
same,TGI,SF-539 CNS,> 100 µM
same,GI50,SK-MEL-2 melanoma,> 100 µM
same,TGI,SK-MEL-2 melanoma,> 100 µM
same,GI50,SK-MEL-28 melanoma,> 100 µM
same,TGI,SK-MEL-28 melanoma,> 100 µM
same,GI50,SK-MEL-5 melanoma,> 100 µM
same,TGI,SK-MEL-5 melanoma,> 100 µM
same,GI50,SK-OV-3 ovarian,> 100 µM
same,TGI,SK-OV-3 ovarian,> 100 µM
same,GI50,SN12C renal,> 100 µM
same,TGI,SN12C renal,> 100 µM
same,GI50,SNB-19 CNS,> 100 µM
same,TGI,SNB-19 CNS,> 100 µM
same,GI50,SNB-75 CNS,> 100 µM
same,TGI,SNB-75 CNS,> 100 µM
same,GI50,SW-620 colon,> 100 µM
same,TGI,SW-620 colon,> 100 µM
same,GI50,T-47D breast,> 100 µM
same,TGI,T-47D breast,> 100 µM
same,GI50,TK-10 renal,> 100 µM
same,TGI,TK-10 renal,> 100 µM
same,GI50,U251 CNS,> 100 µM
same,TGI,U251 CNS,> 100 µM
same,GI50,UACC-257 melanoma,> 100 µM
same,TGI,UACC-257 melanoma,> 100 µM
same,GI50,UACC-62 melanoma,93.9 µM
same,TGI,UACC-62 melanoma,> 100 µM
same,GI50,UO-31 renal,> 100 µM
same,TGI,UO-31 renal,> 100 µM
